Measurements published in article PMC7127579 (Febs Letters, 2006).

Biological target: T1, FhePrx (recombinant 2-Cys peroxiredoxin of Fasciola hepatica) (Fasciola hepatica, UniProt P91883)
T1 sequence (P91883 1-194): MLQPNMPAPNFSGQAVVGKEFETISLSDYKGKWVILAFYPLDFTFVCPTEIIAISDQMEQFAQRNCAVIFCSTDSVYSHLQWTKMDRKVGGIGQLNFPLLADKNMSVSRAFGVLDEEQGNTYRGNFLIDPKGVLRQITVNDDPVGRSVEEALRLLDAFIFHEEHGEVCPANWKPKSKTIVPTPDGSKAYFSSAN
Assay: coupled NADPH oxidation assay
Format: biochemical
Settings: E. coli thioredoxin and thioredoxin reductase, 0.25 mM NADPH, 1 mM EDTA, 5 mM potassium phosphate pH 7.0, 22 °C

## CC(C)(OO)c1ccccc1 [Cumene hydroperoxide]
  Km: 12.7 µM

## CC(C)(C)OO [t-Butyl hydroperoxide]
  Km: 18.6 µM
